Assay results published in patent publication US20190328753A1, “COMPOSITIONS AND METHODS FOR TREATING OCULAR DISEASES” (priority 2015, published 2019).
Several values for one entry are separate records, joined by “and”; a condition that tells them apart may be missing. Identical values can stand only once.

Tested on: patients with moderate to severe MGD
Assay: Clinical trial (Example 8): topical Spironolactone (3 mg/ml) in MGD, retrospective pre-post
Details: for Turbidity, Mean / Vascularity, Mean / Zone A, Mean / Anterior Blepharitis, Mean / Obstruction, Mean / Anterior Blepharitis, mean change / Obstruction, mean change / Turbidity, mean change / Vascularity, mean change / Zone A, mean change: scale 0-4; for Global Evaluation, Mean / Global Evaluation, mean change / Subjective Global Assessment, Mean: scale 0-10
[1] = follow-up 1, patients with >1 follow-ups, low Schirmer's, n=10
[2] = follow-up 1, patients with >1 follow-ups, normal Schirmer's, n=28
[3] = follow-up 1, patients with >1 follow-ups, normal Schirmer's, n=28, scale 0-3
[4] = follow-up 1 vs final follow-up, low Schirmer's, n=10
[5] = follow-up 1 vs final follow-up, low Schirmer's, n=10, scale 0-3
[6] = follow-up 1 vs final follow-up, normal Schirmer's, n=28
[7] = follow-up 1 vs final follow-up, normal Schirmer's, n=28, positive = score decrease
[8] = follow-up 1 vs final follow-up, normal Schirmer's, n=28, scale 0-3
[9] = post-treatment follow-up 1, low Schirmer's, n=27
[10] = post-treatment follow-up 1, low Schirmer's, n=27, scale 0-3
[11] = post-treatment follow-up 1, normal Schirmer's, n=75
[12] = post-treatment follow-up 1, normal Schirmer's, n=75, scale 0-3

Structure (SMILES): CC(=O)SC1CC2=CC(=O)CCC2(C)C2CCC3(C)C(CCC34CCC(=O)O4)C12 (stereo not drawn) [spironolactone, 7α-acetylthio-3-oxo-17α-pregn-4-ene-21,17-carbolactone]
- Turbidity, Mean [1]: 1.95±0.76 and 1.95
- Vascularity, Mean [1]: 1.1±0.88 and 1.1
- Zone A, Mean [1]: 2.55±0.98 and 2.55
- Global Evaluation, Mean [1]: 4.15±2.07 and 4.15
- Schirmer's OD, Mean [2]: 17.07±10.10 and 17.07
- Schirmer's OS, Mean [2]: 17.50±10.42 and 17.5
- Vision OD, Mean [2]: 0.07±0.20 log Mar units and 0.07437 log Mar units
- Vision OS, Mean [2]: 0.09±0.15 log Mar units and 0.08826 log Mar units
- Keratitis OD Corneal, Mean [3]: 0.0±0.0 and 0
- Keratitis OD Nasal, Mean [3]: 0.64±0.72 and 0.6429
- Keratitis OD Temporal, Mean [3]: 0.54±0.68 and 0.5357
- Keratitis OS Corneal, Mean [3]: 0.14±0.52 and 0.1429
- Keratitis OS Nasal, Mean [3]: 0.82±0.80 and 0.8214
- Keratitis OS Temporal, Mean [3]: 0.71±0.80 and 0.7143
- Anterior Blepharitis, Mean [2]: 0.29±0.50 and 0.2857
- Obstruction, Mean [2]: 1.12±0.83 and 1.116
- Turbidity, Mean [2]: 1.96±0.62 and 1.964
- Vascularity, Mean [2]: 1.42±0.84 and 1.42
- Zone A, Mean [2]: 2.59±0.82 and 2.589
- Global Evaluation, Mean [2]: 4.32±1.53 and 4.321
- Schirmer's OD, mean change [4]: 2.9±4.93 and 2.9
- Schirmer's OS, mean change [4]: 1.56±6.25 and 1.556
- Vision OD, mean change [4]: 0.06±0.10 log units and 0.06011 log units
- Vision OS, mean change [4]: 0.02±0.07 log units and 0.0185 log units
- mean improvement in obstruction score (follow-up 1 vs final follow-up, low Schirmer's, n=10, positive = score decrease): 0.6±1.13
- Keratitis OD Corneal, mean change [5]: 0
- Keratitis OD Nasal, mean change [5]: 0.15
- Keratitis OD Temporal, mean change [5]: 0.05
- Keratitis OS Corneal, mean change [5]: 0.1111
- Keratitis OS Nasal, mean change [5]: −0.2222
- Keratitis OS Temporal, mean change [5]: −0.1667
- Anterior Blepharitis, mean change [4]: −0.1±0.57 and −0.1
- Obstruction, mean change [4]: −0.6
- Turbidity, mean change [4]: 0.15±0.82 and 0.15
- Vascularity, mean change [4]: 0.3±0.63 and 0.3
- Zone A, mean change [4]: 0.25±0.75 and 0.25
- Global Evaluation, mean change [4]: 0.25±2.55 and 0.25
- Schirmer's OD, mean change [6]: 1.77±9.01 and 1.778
- improvement in self-reported global assessment scores [7]: 0.77±1.36
- mean improvement in obstruction score [7]: 0.06±0.87
- mean improvement in turbidity score [7]: 0.16±1.00
- mean improvement in vascularity score [7]: 0.29±0.79
- Keratitis OD Corneal, mean change [8]: 0.0±0.0 and 0
- Keratitis OD Temporal, mean change [8]: 0.017±0.57 and 0.01786
- Keratitis OS Corneal, mean change [8]: 0.018±0.21 and 0.01786
- Anterior Blepharitis, mean change [6]: 0.04±0.64 and 0.03571
- Obstruction, mean change [6]: −0.0625
- Turbidity, mean change [6]: −0.1607
- Vascularity, mean change [6]: −0.2946
- Zone A, mean change [6]: 0.13±0.69 and 0.125
- Global Evaluation, mean change [6]: −0.7679
- time to improved symptoms of ocular irritation (moderate to severe symptomatic MGD, 'as early as'): 2 weeks
- side effects after topical administration (patients of the clinical trial): A small percentage of the patients reported a mild temporary burning sensation in the eye
- Subjective Global Assessment, Mean (post-treatment follow-up 1, low Schirmer's (5 or less), n=27): 3.78±1.68 and 3.778
- Schirmer's OD, Mean [9]: 7.52±7.42 mm and 7.519 mm
- Schirmer's OS, Mean [9]: 6.92±5.34 mm and 6.923 mm
- Vision OD, Mean [9]: 0.05±0.12 log Mar units and 0.04681 log Mar units
- Vision OS, Mean [9]: 0.13±0.30 log Mar units and 0.1307 log Mar units
- Keratitis OD Corneal, Mean [10]: 0.07±0.38 and 0.07407
- Keratitis OD Nasal, Mean [10]: 0.93±0.84 and 0.9259
- Keratitis OD Temporal, Mean [10]: 0.74±0.91 and 0.7407
- Keratitis OS Corneal, Mean [10]: 0.15±0.37 and 0.1538
- Keratitis OS Nasal, Mean [10]: 1.19±0.87 and 1.192
- Keratitis OS Temporal, Mean [10]: 0.96±0.82 and 0.9615
- Anterior Blepharitis, Mean [9]: 0.41±0.71 and 0.4074
- Obstruction, Mean [9]: 1.13±1.05 and 1.13
- Turbidity, Mean [9]: 1.89±0.91 and 1.889
- Vascularity, Mean [9]: 0.93±0.829 and 0.9259
- Zone A, Mean [9]: 2.46±1.13 and 2.463
- Subjective Global Assessment, Mean (post-treatment follow-up 1, normal Schirmer's (>5), n=75): 4.03±1.57 and 4.033
- Schirmer's OD, Mean [11]: 16.47±9.75 mm and 16.47 mm
- Schirmer's OS, Mean [11]: 16.95±9.61 mm and 16.95 mm
- Vision OD, Mean [11]: 0.08±0.18 log Mar units and 0.07686 log Mar units
- Vision OS, Mean [11]: 0.11±0.22 log Mar units and 0.1115 log Mar units
- Keratitis OD Corneal, Mean [12]: 0.007±0.06 and 0.006757
- Keratitis OD Nasal, Mean [12]: 0.64±0.68 and 0.6419
- Keratitis OD Temporal, Mean [12]: 0.45±0.64 and 0.4527
- Keratitis OS Corneal, Mean [12]: 0.07±0.34 and 0.06757
- Keratitis OS Nasal, Mean [12]: 0.72±0.73 and 0.723
- Keratitis OS Temporal, Mean [12]: 0.57±0.69 and 0.5743
- Anterior Blepharitis, Mean [11]: 0.39±0.67 and 0.3867
- Obstruction, Mean [11]: 0.98±0.69 and 0.9833
- Turbidity, Mean [11]: 1.75±0.75 and 1.753
- Vascularity, Mean [11]: 1.11±0.829 and 1.11
- Zone A, Mean [11]: 2.51±0.88 and 2.513
